In paper PMC3469756 (Journal of medicinal chemistry, 2012):
Where two headings read alike, the source gives them in different places.

Assays:
[1] = system: PDE1C; details: PDE9 versus PDE1C, cited from earlier work
[2] = target: the molecule itself; test: crystal structure

| Molecule | selectivity against PDE1C [1] [fold] | selectivity against PDE1C ([1]; listed as PF-04447943) | binding result [2] |
| --- | --- | --- | --- |
| C[C@@H]1CN(Cc2ncccn2)C[C@H]1c1nc2c(cnn2C2CCOCC2)c(=O)[nH]1 [compound 9, 6-[(3S,4S)-4-methyl-1-(pyrimidin-2-ylmethyl)pyrrolidin-3-yl]-1-(tetrahydro-2H-pyran4-yl)-1,5-dihydro-4H-pyrazolo[3,4-d]pyrimidin-4-one] | 170 | about 170 fold | – |
| PDE9A2 catalytic domain (residues 181-506) (domain or fragment, UniProt O76083-2 181-506, looked up) PTYPKYLLSPETIEALRKPTFDVWLWEPNEMLSCLEHMYHDLGLVRDFSINPVTLRRWLFCVHDNYRNNPFHNFRHCFCVAQMMYSMVWLCSLQEKFSQTDILILMTAAICHDLDHPGYNNTYQINARTELAVRYNDISPLENHHCAVAFQILAEPECNIFSNIPPDGFKQIRQGMITLILATDMARHAEIMDSFKEKMENFDYSNEEHMTLLKMILIKCCDISNEVRPMEVAEPWVDCLLEEYFMQSDREKSEGLPVAPFMDRDKVTKATAQIGFIKFVLIPMFETVTKLFPMVEEIMLQPLWESRDRYEELKRIDDAMKELQKK | – | – | binds |
